Article PMC7194015, “Proline-Rich Antimicrobial Peptides in Medicinal Maggots of Lucilia sericata Interact With Bacterial DnaK But Do Not Inhibit Protein Synthesis” (Frontiers in Pharmacology, 2020)
Ends that are not written are not given here.

Columns and labels:
bacterial chaperone DnaK = target: T1, bacterial chaperone DnaK (Escherichia coli, UniProt P0A6Y8); assay: FRET assay, DnaK-binding (fluorescence quenching with DnaK-BHQ10); details: for maximum quenching effect: n = 3; for Kd: N-terminal 5(6)-carboxyfluorescein, C-terminal amide, quenching assay, non-linear regression (SlideWrite v7.01)
T1 construct: made in house
Experimental: Lser-stomoxyn, Lser-PRP2, and Lser-PRP3 were synthesized by PANATecs (Tübingen, Germany) at >95% purity with C-terminal amidation (Table 1). For the quenching assay, Lser-PRP2 and Lser-PRP3 were synthesized with N-terminal 5(6)-carboxyfluorescein and C-terminal amidation. DnaK was produced by Michael Zahn ([Knappe et al., 2011]). The Black Hole Quencher 10 succinimidyl ester (BHQ10-NHS ester, > 75% purity) was purchased from BioCat (Heidelberg, Germany).
DnaK (2 mg/ml) was dialyzed against the modifying buffer (20 mM Na2HPO4, 20 mM KH2PO4, 5 mM MgCl2, 150 mM KCl; pH 7.4) before labeling with a 10-fold molar excess of BHQ10-NHS ester ([Kreisig et al., 2011]; [Dobslaff et al., 2012]). Excess BHQ10 was removed by further dialysis and the final DnaK concentration was adjusted to […]. To evaluate the labeling efficiency, we measured BHQ10 absorption at 515 nm, and calculated the ratio of dye to protein (mean labeling degree, nine BHQ10 molecules per DnaK).
We mixed 50 μl of the fluorescein-modified peptides (1.3 nM) with 50 μl of a 1:4 serial dilution series of DnaK-BHQ10 in modification buffer (0.8–13,000 nM) in a solid black 384-well plate and incubated the plates for 2 h as previously described ([Dobslaff et al., 2012]). To calculate the quenching effect, control mixtures (50 μl of the peptide solution and 50 μl of the modification buffer) were recorded five times. We recorded the fluorescence intensity on a Paradigm fluorescence reader using a fluorescence (fluo-rhod) detection cartridge (excitation wavelength = 485 ± 10 nm, emission wavelength = 535 ± 12.5 nm, integration time = 140 ms). The quenching effect was expressed as the percentage of the fluorescence intensity of the control quenched after the addition of DnaK-BHQ10.
Dissociation constants (Kd) were determined using SlideWrite v7.01. The quenching effects were plotted against the DnaK concentration (logarithmic abscissa). Kd values were calculated by non-linear regression using the dose–response logistical transition function of the program [y = a 0 + a 1/(1 + x/a 2) a3].

Gram-negative bacteria = details: ref Pöppel et al., 2015; Hirsch et al., 2019; cited from earlier work
Description: Several previous investigations have addressed the AMP repertoire of L. sericata. […] More recent studies have characterized the defensin-family AMP lucifensin ([Andersen et al., 2010]; [Čeřovský et al., 2010]; [Čeřovský et al., 2011]) and the antifungal AMP lucimycin ([P ...

[1] = test system: E. coli JM83 cells carrying plasmid pCH110; assay: Bacterial membrane permeabilization assay (β-galactosidase release); assay type: cell-based
Experimental: We tested the activity of the L. sericata AMPs against E. coli JM83, carrying plasmid pCH110 (Pharmacia-Amersham, Piscatway, NJ, USA).
Membrane permeabilization was quantified by measuring the activity of β-galactosidase released from E. coli JM83 cells carrying plasmid pCH110, which encodes a constitutive, cytoplasmic form of the enzyme ([Zdybicka-Barabas et al., 2013]). The peptides were pre-incubated for 15 min at 37°C in 23 μl 20 mM phosphate buffer (pH 6.8) before adding 2 μl of a suspension of mid-logarithmic phase E. coli cells (5 × 10^5 colony forming units, prepared in the same buffer). The final AMP concentrations were 0.0625–2 µM Lser-stomoxyn and up to 50 µM for the Lser-PRPs ([Pöppel et al., 2015]; [Hirsch et al., 2019]). After incubation for 45 min at 37°C, we added 220 μl 20 mM HEPES/150 mM NaCl (pH 7.5) and 5 μl 50 mM p-nitrophenyl-β-D-galactopyranoside. We incubated the samples at 37°C for a further 90 min and then measured the absorbance at 405 nm, which is proportional to the amount of released β-galactosidase. Live bacteria incubated in growth medium as well as dead bacteria after treatment with 5 µM synthetic cecropin B (Sigma-Aldrich) served as control samples. We set the perforation level of dead bacteria to 100%. All assays were performed six times in triplicate for each type of sample.

E. coli JM83 = assay: Atomic force microscopy of bacterial cell surface; assay type: cell-based; details: 90 min at 37°C
Experimental: Bacterial samples were prepared for atomic force microscopy (AFM) as previously described ([Zdybicka-Barabas et al., 2012]; [Zdybicka-Barabas et al., 2013]). Briefly, log-phase E. coli JM83 cells (OD600 = 0.2) in 100 µL lysogeny broth were incubated at 37°C for 90 min in the presence of individual or combined AMPs, or without AMPs as a negative control. We used concentrations of 50 μM Lser-PRP2, 50 μM Lser-PRP3, and 0.25 μM Lser-stomoxyn. The samples were centrifuged (8,000 × g, 4°C, 10 min), washed twice with apyrogenic water, resuspended in 5 μl apyrogenic water, applied to mica disks and allowed to dry at 28°C overnight.
The cell surface was imaged using a NanoScope V AFM (Veeco, Plainview, NY, USA) in Peak Force QNM operation mode and a silicon tip NSG 30 with a spring constant of 20 N/m (NT-MDT, Moscow, Russian Federation). The results were processed using Nanoscope Analysis v1.40 (Veeco). Three fields on each mica disk were imaged. The roughness values were measured over the entire bacterial cell surface in 3 × 3 µm areas. The average surface root mean square (RMS) roughness was calculated from 25 fields (300 × 300 nm). Section profiles and 3D images were produced using WSxM v5.0 ([Horcas et al., 2007]).

[2] = test system: panel of 114 multi-drug resistant clinical isolates; design: method as in Hirsch et al., 2019; details: ref Hirsch et al., 2019; cited from earlier work
[3] = Figure 2 legend, N-terminal 5(6)-carboxyfluorescein peptide, DnaK-BHQ10
[4] = N-terminal 5(6)-carboxyfluorescein peptide (1.3 nM) + DnaK-BHQ10 (0.8–13,000 nM), 2 h, 384-well, pH 7.4, sigmoidal curve

T1 sequence (P0A6Y8 whole entry): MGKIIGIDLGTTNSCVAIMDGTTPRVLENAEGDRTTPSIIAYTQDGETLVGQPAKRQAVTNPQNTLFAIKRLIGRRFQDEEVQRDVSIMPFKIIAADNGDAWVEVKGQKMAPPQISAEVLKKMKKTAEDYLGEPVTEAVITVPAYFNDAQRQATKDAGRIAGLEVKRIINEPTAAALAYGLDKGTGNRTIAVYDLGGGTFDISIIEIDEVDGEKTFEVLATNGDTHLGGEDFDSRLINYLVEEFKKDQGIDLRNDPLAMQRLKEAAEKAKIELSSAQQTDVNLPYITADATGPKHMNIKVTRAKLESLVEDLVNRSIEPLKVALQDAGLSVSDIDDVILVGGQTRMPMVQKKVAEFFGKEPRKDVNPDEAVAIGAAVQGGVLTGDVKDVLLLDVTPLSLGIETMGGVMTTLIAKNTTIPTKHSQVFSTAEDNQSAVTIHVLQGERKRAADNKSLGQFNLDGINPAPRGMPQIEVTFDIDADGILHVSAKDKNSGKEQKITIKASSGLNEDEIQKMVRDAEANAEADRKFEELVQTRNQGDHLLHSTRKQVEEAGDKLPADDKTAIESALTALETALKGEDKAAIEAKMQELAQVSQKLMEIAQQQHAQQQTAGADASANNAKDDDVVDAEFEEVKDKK

SPFVDRPRRPIQHNGPKPRIITNPPFNPNARPAW-NH2 [Lser-PRP3]
maximum quenching effect (bacterial chaperone DnaK; [3]): > 80%
maximum quenching effect (bacterial chaperone DnaK; [4]): 85–88%
Kd (bacterial chaperone DnaK): 300 ± 6 nM

EWRPHGSIGGSGLRPGRPQTLPPQRPRRPDFNGPRHRF-NH2 [Lser-PRP2]
maximum quenching effect (bacterial chaperone DnaK; [3]): > 80%
maximum quenching effect (bacterial chaperone DnaK; [4]): 85–88%
Kd (bacterial chaperone DnaK): 140 ± 10 nM

GFRKRFNKLVKKVKHTIKETANVSKDVAIVAGSGVAVGAAMG [Lser-Stomoxyn, Lucilia sericata canonical α-helical antimicrobial peptide, synthesized at >95% purity with C-terminal amidation]
antibacterial activity (Gram-negative bacteria): particularly active against Gram-negative bacteria
bacterial membrane permeabilization ([1]; 0.25 µM, abstract): 1%
bacterial membrane permeabilization ([1]; 1 µM, 45 min at 37°C, bacteria killed by 5 µM cecropin B = 100%, n = 6): 12%
bacterial membrane permeabilization ([1]; 2 µM, 45 min at 37°C, bacteria killed by 5 µM cecropin B = 100%, n = 6): 40%
bacterial membrane permeabilization ([1]; 0.0625 or 0.125 µM, 45 min at 37°C, 20 mM phosphate pH 6.8, n = 6): little evidence of permeabilization
bacterial membrane permeabilization ([1]; 0.25–0.5 µM, 45 min at 37°C, bacteria killed by 5 µM cecropin B = 100%, n = 6): 1–2%
Adhesion forces (E. coli JM83; 0.25 µM, mean ± SD of 25 fields, control 0.174 (± 0.04), ***p ≤ 0.001 vs control, letter a: differs from combination): 0.236 (± 0.079)^a*** nN
Roughness (E. coli JM83; 0.25 µM, mean ± SD of 25 fields, control 0.843 (± 0.22), ***p ≤ 0.001 vs control, letter b: differs from combination): 1.102 (± 0.373)^b*** nm
Young's modulus (E. coli JM83; 0.25 µM, mean ± SD of 25 fields, control 2458 (± 24.52), **p ≤ 0.01 vs control): 2601 (± 32.19)** MPa
flagella (E. coli JM83; Lser-stomoxyn 0.25 µM alone): lost their flagella
cell surface granularity vs controls (E. coli JM83; Lser-stomoxyn 0.25 µM or Lser-PRP2 50 µM alone): considerably more granular than that of the controls
activity against clinical isolates [2]: showed activity against clinical isolates of E. coli, Enterobacter spp., Klebsiella spp., Salmonella enterica, Citrobacter freundii, and Acinetobacter spp., as well as multiple isolates of P. aeruginosa
